Data published in ChEMBL document CHEMBL3351987, “Synthesis and biological evaluation of isoprenylated coumarins as potential anti-pancreatic cancer agents” (2014).

Key:
[1] = Cytotoxicity against human PANC1 cells under nutrient-deprived condition after 24 hrs by WST8 dye based assay; type: functional; conditions: PANC-1, 24 h, read-out: LC50 (the source's name)
[2] = Cytotoxicity against human PANC1 cells under nutrient-rich condition after 24 hrs by WST8 dye based assay; type: functional; conditions: PANC-1, 24 h, read-out: LC50 (the source's name)
[3] = test system: PANC-1; assay: Induction of apoptosis in human PANC1 cells under nutrient-deprived condition after 24 hrs; type: functional, cell-based
[4] = test system: PANC-1; assay: Stimulation of cell growth in human PANC1 cells at 6.25 to 50 uM under nutrient-deprived condition after 24 hrs by WST8 dye based assay; type: functional

SMILES | CC50 [1] [µM] | CC50 [2] [µM] | Activity [3] | Activity [4] [%]
CC(C)=CCC/C(C)=C/CC/C(C)=C/COc1cc2ccccc2oc1=O | 12 | > 100 |  | 
CC(C)=CCC/C(C)=C/COc1cc2ccccc2oc1=O | 37 | > 100 |  | 
CC(C)=CCOc1cc2ccccc2oc1=O | > 100 | > 100 |  | 
CC(C)=CCOc1ccc2oc(=O)ccc2c1 | > 100 | > 100 |  | 
CC(C)=CCC/C(C)=C/COc1ccc2oc(=O)ccc2c1 | 12 | > 100 |  | 
CC(C)=CCC/C(C)=C/CC/C(C)=C/COc1ccc2oc(=O)ccc2c1 | 4 | > 100 | Dose-dependent effect | 
CC(C)=CCO | > 100 | > 100 |  | 
O=c1oc2ccccc2cc1O [3-HYDROXYCOUMARIN] | > 100 | > 100 |  | 
O=c1ccc2cc(O)ccc2o1 [6-HYDROXYCOUMARIN] | > 100 | > 100 |  | 
CC(C)=CCOc1ccc2ccc(=O)oc2c1 [7-PRENYLOXYCOUMARIN] | 83 | > 100 |  | 
CC(C)=CCC/C(C)=C/COc1ccc2ccc(=O)oc2c1 [AURAPTENE] | 21 | > 100 |  | 
CC(C)=CCC/C(C)=C/CC/C(C)=C/CO [FARNESOL] |  | > 100 |  | 40
CC(C)=CCC/C(C)=C/CO [GERANIOL] |  | > 100 |  | 20
O=c1ccc2ccc(O)cc2o1 [UMBELLIFERONE] | > 100 | > 100 |  | 
CC(C)=CCC/C(C)=C/CC/C(C)=C/COc1ccc2ccc(=O)oc2c1 [UMBELLIPRENIN] | 18 | > 100 |  | 
